The target in assay [1] is T1, SH2 domain-containing protein 1A (Homo sapiens) (UniProt O60880).
T1 sequence (whole entry): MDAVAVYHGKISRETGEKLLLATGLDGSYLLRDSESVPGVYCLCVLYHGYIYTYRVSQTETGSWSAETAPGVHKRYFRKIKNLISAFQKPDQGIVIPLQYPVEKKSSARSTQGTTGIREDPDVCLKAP
Briefly: (§1) Inhibition of recombinant 6-His-tagged SLAM associated protein SH2 domain (unknown origin) expressed in Escherichia coli BL21(DE3) binding to biotinyl-KKSLTIpYAQVQK-NH2 attached to NeutrAvidin-coated plates using p-nitrophenyl phosphate as substrate after 1 hr.

The target of assay [2] is T1, SH2 domain-containing protein 1A (Homo sapiens). Briefly: Inhibition of recombinant 6-His-tagged SLAM associated protein SH2 domain (unknown origin) expressed in Escherichia coli BL21(DE3) binding to biotinyl-KKSLTIpYAQVQK-NH2 attached to NeutrAvidin-coated plates using p-nitrophenyl phosphate as substrate after 1 hr in presence of calf intestine phosphatase.
Assay [3] has the same target. Briefly: Inhibition of recombinant 6-His-tagged SLAM associated protein SH2 domain (unknown origin) expressed in Escherichia coli BL21(DE3) binding to biotinyl-KKSLTIpYAQVQK-NH2 attached to NeutrAvidin-coated plates using p-nitrophenyl phosphate as substrate up to 1 uM after 1 hr.
Assay [4] addresses T2, SH2 domain-containing protein 1A (Homo sapiens, UniProt O60880).
T2 sequence (O60880 whole entry): T1 sequence (whole entry)
The assay is described as §1.

The target in assay [5] is T1, SH2 domain-containing protein 1A (Homo sapiens). Briefly: Inhibition of recombinant 6-His-tagged SLAM associated protein SH2 domain (unknown origin) expressed in Escherichia coli BL21(DE3) binding to biotinyl-KKSLTIpYAQVQK-NH2 attached to NeutrAvidin-coated plates using p-nitrophenyl phosphate as substrate at 100 uM after 1 hr.
The target is the same in assay [6]. The experiment in a line: Inhibition of recombinant 6-His-tagged SLAM associated protein SH2 domain (unknown origin) expressed in Escherichia coli BL21(DE3) binding to biotinyl-KKSLTIpYAQVQK-NH2 attached to NeutrAvidin-coated plates using p-nitrophenyl phosphate as substrate at 10 uM after 1 hr relative to control.

The text below walks through data of ChEMBL document CHEMBL2321862, “Development and evaluation of novel phosphotyrosine mimetic inhibitors targeting the Src homology 2 domain of signaling lymphocytic activation molecule (SLAM) associated protein” (J Med Chem, 2013).

Activity calls are given as the source filed them. Peptide text beside a SMILES is read from it.

On to `CC[C@H](C)[C@H](NC(=O)[C@@H](NC(=O)[C@H](CC(C)C)NC(=O)[C@H](CO)NC(=O)[C@H](CCCCN)NC(=O)[C@H](CCCCN)NC(C)=O)[C@@H](C)O)C(=O)N[C@@H](Cc1ccc(OP(=O)(O)O)cc1)C(=O)N[C@@H](C)C(=O)N[C@@H](CCC(N)=O)C(=O)N[C@H](C(=O)N[C@@H](CCC(N)=O)C(=O)N[C@@H](CCCCN)C(N)=O)C(C)C` (HELM PEPTIDE1{[ac].K.K.S.L.T.I.[O=C([C@H](Cc1ccc(OP(=O)(O)O)cc1)N[*:1])[*:2]].A.Q.V.Q.K.[am]}$$$$V2.0), for which the inhibition entry in assay [1] is “Dose-dependent effect”. In addition, in assay [2], the inhibition result is “inactive”.

As to `NC(=O)[C@H](CC(=O)O)NC(=O)[C@@H](N)Cc1ccc2c(c1)COP(=O)(O)O2`, the inhibition entry in assay [1] is “inactive”.

Consider `CC(=O)N[C@@H](CC(=O)O)C(=O)N[C@@H](CC(=O)O)C(=O)N1CCC[C@H]1C(=O)N[C@@H](CO)C(=O)N[C@@H](Cc1ccc(OP(=O)(O)O)cc1)C(=O)N[C@H](C(=O)N[C@@H](CC(N)=O)C(=O)N[C@H](C(=O)N[C@@H](CCC(N)=O)C(N)=O)C(C)C)C(C)C` (HELM PEPTIDE1{[ac].D.D.P.S.[O=C([C@H](Cc1ccc(OP(=O)(O)O)cc1)N[*:1])[*:2]].V.N.V.Q.[am]}$$$$V2.0), for which the inhibition entry in assay [3] is “inactive”.

The term IC50 denotes the concentration at which inhibition is half-maximal. For the compound `NC(=O)[C@H](CC(=O)O)NC(=O)[C@H](Cc1ccc2c(c1)COP(=O)(O)O2)NC(=O)OCC1c2ccccc2-c2ccccc21`, in assay [4], the IC50 amounted to 17 µM. For the same compound, the inhibition result in assay [1] is “Dose-dependent effect”. For the same compound, the inhibition entry in assay [5] is “Active”. The fold change (FC) in assay [6] was 0.55.

For the compound `CC[C@H](C)[C@H](NC(=O)OCC1c2ccccc2-c2ccccc21)C(=O)N[C@@H](Cc1ccc2c(c1)COP(=O)(O)O2)C(=O)OC`, the inhibition result in assay [5] was “Active”. Also, in assay [6], the fold change (FC) is 1.51.

As for `NC(=O)[C@H](Cc1ccccc1)NC(=O)[C@H](Cc1ccc2c(c1)COP(=O)(O)O2)NC(=O)OCC1c2ccccc2-c2ccccc21`, the IC50 in assay [4] was found to be 35 µM. In addition, the inhibition result in assay [1] is “Dose-dependent effect”. In assay [5], the inhibition entry is “Active”. Further, the fold change (FC) in assay [6] is 0.73.

On to `COC(=O)[C@H](Cc1ccc2c(c1)COP(=O)(O)O2)NC(=O)[C@H](CC(=O)NC(c1ccccc1)(c1ccccc1)c1ccccc1)NC(=O)OCC1c2ccccc2-c2ccccc21`, for which the inhibition result in assay [5] is “Active”. In assay [6], the fold change (FC) turned out to be 1.06.

As to `COC(=O)[C@H](Cc1ccc2c(c1)COP(=O)(O)O2)NC(=O)[C@H](CC(=O)O)NC(=O)OCC1c2ccccc2-c2ccccc21`, the inhibition result in assay [5] is “Active”. The fold change (FC) in assay [6] was 0.84.

As to `CC(C)(C)OC(=O)CC[C@H](NC(=O)[C@H](Cc1ccc2c(c1)COP(=O)(O)O2)NC(=O)OCC1c2ccccc2-c2ccccc21)C(N)=O`, the inhibition result in assay [5] is “Active”. Moreover, in assay [6], the fold change (FC) worked out at 1.47.

Turning to `C[C@@H](O)[C@H](NC(=O)[C@H](Cc1ccc2c(c1)COP(=O)(O)O2)NC(=O)OCC1c2ccccc2-c2ccccc21)C(N)=O`, the inhibition entry in assay [5] is “Active”. Also, the fold change (FC) in assay [6] is 1.22.

With `COC(=O)[C@H](Cc1ccc2c(c1)COP(=O)(O)O2)NC(=O)[C@H](Cc1c[nH]c2ccccc12)NC(=O)OCC1c2ccccc2-c2ccccc21`, the inhibition result in assay [5] is “Active”. The fold change (FC) in assay [6] came out at 0.94.

On to `CC(C)(C)OC(=O)C[C@H](NC(=O)[C@H](Cc1ccc2c(c1)COP(=O)(O)O2)NC(=O)OCC1c2ccccc2-c2ccccc21)C(N)=O`, for which, in assay [5], the inhibition entry was “Active”. Moreover, the fold change (FC) in assay [6] came out at 1.24.

With `COC(=O)[C@H](Cc1ccc2c(c1)COP(=O)(O)O2)NC(=O)[C@@H](NC(=O)OCC1c2ccccc2-c2ccccc21)[C@@H](C)O`, in assay [5], the inhibition result was “Active”. Moreover, the fold change (FC) in assay [6] turned out to be 0.82.

As to `COC(=O)[C@H](Cc1ccc2c(c1)COP(=O)(O)O2)NC(=O)[C@H](CCCNC(=N)NS(=O)(=O)c1c(C)c(C)c2c(c1C)CC(C)(C)O2)NC(=O)OCC1c2ccccc2-c2ccccc21`, in assay [5], the inhibition result is “Active”. Also, the fold change (FC) in assay [6] stood at 0.75.

On to `COC(=O)[C@H](Cc1ccc2c(c1)COP(=O)(O)O2)NC(=O)[C@H](Cc1cn(C(c2ccccc2)(c2ccccc2)c2ccccc2)cn1)NC(=O)OCC1c2ccccc2-c2ccccc21`, for which, in assay [5], the inhibition result is “Active”. In assay [6], the fold change (FC) was determined as 1.06.

`CC(C)(C)OC(=O)NCCCC[C@H](NC(=O)[C@H](Cc1ccc2c(c1)COP(=O)(O)O2)NC(=O)OCC1c2ccccc2-c2ccccc21)C(N)=O`: the IC50 in assay [4] is 34 µM. Also, the inhibition result in assay [1] was “Dose-dependent effect”. Moreover, in assay [5], the inhibition result is “Active”. Further, the fold change (FC) in assay [6] was 0.7.

With `COC(=O)[C@H](Cc1ccc2c(c1)COP(=O)(O)O2)NC(=O)[C@H](C)NC(=O)OCC1c2ccccc2-c2ccccc21`, the inhibition entry in assay [5] is “Active”. Besides, the fold change (FC) in assay [6] is 0.89.

Turning to `CC(C)(C)Oc1ccc(C[C@H](NC(=O)[C@H](Cc2ccc3c(c2)COP(=O)(O)O3)NC(=O)OCC2c3ccccc3-c3ccccc32)C(N)=O)cc1`, in assay [5], the inhibition result is “Active”. Besides, the fold change (FC) in assay [6] stood at 1.24.

Regarding `CC(C)(C)OC(=O)n1cc(C[C@H](NC(=O)[C@H](Cc2ccc3c(c2)COP(=O)(O)O3)NC(=O)OCC2c3ccccc3-c3ccccc32)C(N)=O)c2ccccc21`, the inhibition result in assay [5] is “Active”. Moreover, the fold change (FC) in assay [6] was 1.33.
